Experiment [1] deals with T1, His-GST-TVMV-hRIPK1(1-324) (Homo sapiens, UniProt Q13546).
T1 construct: The coding region of human RIPK1(1-324) flanked by NdeI site at 5′ end; made in house; host or cells: Spodoptera frugiperda (Sf9) insect cells, baculovirus
T1 sequence (Q13546 1-324): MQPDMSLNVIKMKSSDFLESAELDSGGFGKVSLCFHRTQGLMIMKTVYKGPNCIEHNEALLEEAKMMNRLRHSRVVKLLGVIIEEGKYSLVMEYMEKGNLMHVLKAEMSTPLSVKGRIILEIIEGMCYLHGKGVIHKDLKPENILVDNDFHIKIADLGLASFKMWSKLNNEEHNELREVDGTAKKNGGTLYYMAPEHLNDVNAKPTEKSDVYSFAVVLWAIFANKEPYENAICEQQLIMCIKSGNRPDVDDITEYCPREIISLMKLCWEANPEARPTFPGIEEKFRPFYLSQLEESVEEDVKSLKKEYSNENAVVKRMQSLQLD
As to the kind of experiment: RIPK1 HTRF Binding Assay. On the procedure: The plate was incubated at rt for 1 h.
Cloning and Baculovirus Expression of RIPK1 Construct
Baculovirus was generated for the construct using the Bac-to-Bac baculovirus expression system (Invitrogen) according to the manufacturer's protocol. Briefly, recombinant bacmid was isolated from transformed DH10Bac E. coli competent cells (Invitrogen) and used to transfect Spodoptera frugiperda (Sf9) insect cells (Invitrogen). Baculovirus was harvested 72 hours post transfection and a virus stock was prepared by infecting fresh Sf9 cells at a 1/1000 (v/v) ratio for 66 hours.
The production was carried out either at a 10 L scale in a 22 L cellbag (GE Healthcare Bioscience, Pittsburgh, Pa.) or at a 20 L scale in a 50 L cellbag using WAVE-Bioreactor System 20/50 (GE Healthcare Bioscience). The infected cells were harvested by centrifugation at 2000 rpm for 20 min at 4° C. in a SORVALL® RC12BP centrifuge. The cell pellets was stored at −70° C. before protein was purified.
RIPK1 containing cell paste was resuspended in 50 mM Tris pH 7.5, 150 mM NaCl, 10 mM imidazole, 5% glycerol, 5 mM MgSO4, 1 mM TCEP, 25 U/ml Benzonase, and Complete Protease Inhibitor tablets (1/50 ml, Roche Diagnostics, Indianapolis, Ind.). […] The suspension was clarified by centrifugation at 136,000×g for 40 min, at 4° C. The lysate was decanted from the pellet and passed through a 5 ml NiNTA Superflow cartridge (Qiagen, Valencia, Calif.) using an AKTA Pure (GE Healthcare). Column was eluted with 10 CV linear gradient into 50 mM Tris 7.5, 150 mM NaCl, 500 mM imidazole, 5% glycerol, 1 mM TCEP. Peak fractions were pooled and loaded directly onto 5 ml GSTrap 4B column (GE Healthcare). Column was washed with 50 mM Tris 7.0, 150 mM NaCl, 5% glycerol, 1 mM DTT and eluted in 10 CV linear gradient into 50 mM Tris 8.0, 150 mM NaCl, 20 mM reduced glutathione, 5% glycerol, 1 mM DTT. Fractions identified by SDS-PAGE as containing RIPK1 were pooled and concentrated using 30 kDa MWCO spin concentrators (Amicon Ultra-15, Millipore, Billerica, Mass.) and loaded onto a HiLoad 26/600 Superdex 200 column (GE Healthcare) equilibrated in 25 mM Tris 7.5, 150 mM NaCl, 2 mM TCEP, 5% glycerol.
Protein was aliquoted and stored at −80° C.
In general terms: TR-FRET usually uses a lanthanide donor and a delayed reading to cut background.

Experiment [2] has as its system MLKL phosphorylation in HT29-L23 human colorectal adenocarcinoma cells. The experiment in a line: MLKL Phosphorylation High-Content Assay. To be noted: Homo sapiens. It is filed as cell-based. On the procedure: MLKL Phosphorylation High-Content Assay
Following six hours incubation at 37° C. […] MLKL phosporylation was detected using anti-MLKL (phospho S358) antibody (Abcam #ab187091) (1:1000 dilution in Blocking Buffer [PBS supplemented with 0.1% BSA]) with overnight incubation at 4° C. […] Following another three cycles of washes in PBS, the microplates were sealed, and cellular images were acquired in the Cellomics ArrayScan VTI high-content imager equipped with an X1 camera. […] The image sets were analyzed using the Compartmental Analysis Bioapplication software (Cellomics). The level of MLKL phosphorylation was quantified as MEAN CircRingAvgIntenRatio. […] The data were fitted using the 4-parameter logistic equation to calculate the IC50 and Ymax values.

Where [3] appears, read: x marks IC50 class 20-200 nM, read-out: RIPK1 HTRF binding 20-200 nM.
Setting [4] is: x marks IC50 class >200 nM, read-out: pMLKL cell activity >200 nM.
Setting [5] is: x marks IC50 class >200 nM, read-out: RIPK1 HTRF binding >200 nM.
The mark [6] stands for this setting: x marks IC50 class <20 nM, read-out: RIPK1 HTRF binding <20 nM.
Where [7] appears, read: x marks IC50 class 20-200 nM, read-out: pMLKL cell activity 20-200 nM.
[8] abbreviates: x marks IC50 class <20 nM, read-out: pMLKL cell activity <20 nM.

Where two headings read alike, the source gives them in different places.

Regarding `COc1ncc(-c2ccn3nc(N)nc3c2)cc1C(=O)NCc1ccccc1OCC1CCC(C)CC1` (centres unmarked) [Example 10, 5-{2-Amino-[1,2,4]triazolo[1,5-a]pyridin-7-yl}-2-methoxy-N-({2-[(4-methylcyclohexyl)methoxy]phenyl}methyl)pyridine-3-carboxamide], the IC50 in experiment [1] (setting [3]) was 20 to 200 nM; in experiment [2] (setting [4]) it was > 200 nM.

Take `COc1ncc(-c2ccn3nc(N)nc3c2)cc1C(=O)NC(C)c1ccccc1OC(F)(F)F` (single isomer, unassigned) [Example 38-2, 5-{2-Amino-[1,2,4]triazolo[1,5-a]pyridin-7-yl}-2-methoxy-N-{1-[2-(trifluoromethoxy)phenyl]ethyl}pyridine-3-carboxamide]: the IC50 in experiment [1] (setting [5]) and in experiment [2] (setting [4]) was > 200 nM each time.

On to `COc1ncc(-c2ccn3nc(N)nc3c2)cc1C(=O)N1CCCC(C(O)c2ccc(F)cc2)C1` (mixture of isomers) [Example 422, (5-(2-amino-[1,2,4]triazolo[1,5-a]pyridin-7-yl)-2-methoxypyridin-3-yl)(3-((4-fluorophenyl)(hydroxy)methyl)piperidin-1-yl)methanone], for which the IC50 in experiment [1] (setting [5]) and in experiment [2] (setting [4]) was > 200 nM each time.

`[2H]C([2H])([2H])[C@@H](NC(=O)c1cc(-c2ccn3nc(N)nc3c2)cnc1C)c1cc(C(F)(F)F)ccc1F` [Example 303, (R)-5-(2-amino-[1,2,4]triazolo[1,5-a]pyridin-7-yl)-N-(1-(2-fluoro-5-(trifluoromethyl)phenyl)ethyl-2,2,2-H3)-2-methylnicotinamide]: the IC50 in experiment [1] (setting [6]) was < 20 nM; in experiment [2] (setting [7]), 20 to 200 nM.

Take `Cc1ncc(-c2ccn3nc(N)nc3c2)cc1C(=O)NCc1cc(F)ccc1OCC(F)(F)F` [Example 309, 5-(2-amino-[1,2,4]triazolo[1,5-a]pyridin-7-yl)-N-(5-fluoro-2-(2,2,2-trifluoroethoxy)benzyl)-2-methylnicotinamide]: the IC50 in experiment [1] (setting [6]) is < 20 nM; in experiment [2] (setting [4]), > 200 nM.

Turning to `[2H]C([2H])([2H])Oc1ncc(-c2ccn3nc(N)nc3c2)cc1C(=O)NC([2H])([2H])c1cc(OC(F)(F)F)ccc1F` [Example 93, 5-{2-amino-[1,2,4]triazolo[1,5-a]pyridin-7-yl}-N-{[2-fluoro-5-(trifluoromethoxy)phenyl] (deutero)methyl}-2-(deutero)methoxypyridine-3-carboxamide], the IC50 in experiment [1] (setting [6]) was < 20 nM; in experiment [2] (setting [7]), 20 to 200 nM.

Turning to `COc1ncc(-c2ccn3nc(N)nc3c2)cc1C(=O)NCc1ccccc1OCC1CCC1` [Example 149, 5-{2-amino-[1,2,4]triazolo[1,5-a]pyridin-7-yl}-N-{[2-(cyclobutylmethoxy)phenyl]methyl}-2-methoxypyridine-3-carboxamide], the IC50 in experiment [1] (setting [6]) and in experiment [2] (setting [8]) was < 20 nM throughout.

As to `Cc1nc(C)c(-c2ccn3nc(N)nc3c2)cc1C(=O)NCc1cccc(OCC(F)(F)F)c1` [Example 293, 5-(2-amino-[1,2,4]triazolo[1,5-a]pyridin-7-yl)-2,6-dimethyl-N-(3-(2,2,2-trifluoroethoxy)benzyl)nicotinamide], the IC50 in experiment [1] (setting [3]) and in experiment [2] (setting [7]) was 20 to 200 nM throughout.

`Nc1nc2cc(-c3cc(C(=O)NCc4cc(OC(F)(F)F)ccc4F)cnc3Cl)ccn2n1` [Example 368, 5-(2-Amino-[1,2,4]triazolo[1,5-a]pyridin-7-yl)-6-chloro-N-(2-fluoro-5-(trifluoromethoxy)benzyl)nicotinamide]: the figures for the IC50 in experiment [1] (setting [6]) and in experiment [2] (setting [7]) were < 20 nM and 20 to 200 nM, respectively.

Regarding `Cc1cnc(-c2ccn3nc(N)nc3c2)nc1C(=O)N[C@H](C)c1cc(C(F)(F)F)ccc1F` [Example 409, (R)-2-(2-amino-[1,2,4]triazolo[1,5-a]pyridin-7-yl)-N-(1-(2-fluoro-5-(trifluoromethyl)phenyl)ethyl)-5-methylpyrimidine-4-carboxamide], the IC50 in experiment [1] (setting [3]) and in experiment [2] (setting [7]) was 20 to 200 nM each time.

Consider `COc1ncc(-c2ccn3nc(N)nc3c2)cc1C(=O)NCc1ccccc1OC1CCC(C)C1` (centres unmarked) [Example 32, 5-{2-Amino-[1,2,4]triazolo[1,5-a]pyridin-7-yl}-2-methoxy-N-({2-[(3-methylcyclopentyl)oxy]phenyl}methyl)pyridine-3-carboxamide], for which the IC50 in experiment [1] (setting [6]) and in experiment [2] (setting [8]) was < 20 nM in each case.

Take `Cc1nc(Cl)c(C(=O)N[C@H](C)c2cc(OC(F)(F)F)ccc2F)cc1-c1ccn2nc(N)nc2c1` [Example 323, (R)-5-(2-amino-[1,2,4]triazolo[1,5-a]pyridin-7-yl)-2-chloro-N-(1-(2-fluoro-5-(trifluoromethoxy)phenyl)ethyl)-6-methylnicotinamide]: the IC50 in experiment [1] (setting [3]) and in experiment [2] (setting [7]) was 20 to 200 nM throughout.

As to `Cc1ncc(-c2ccn3nc(N)nc3c2)cc1C(=O)NCc1cc(F)cc(F)c1OCC1CCCC1` [Example 232], the IC50 is < 20 nM in experiment [1] (setting [6]) and 20 to 200 nM in experiment [2] (setting [7]).

On to `CCOc1ncc(-c2ccn3nc(N)nc3c2)cc1C(=O)NCc1ccccc1OCC1CCC1` [Example 268, 5-{2-amino-[1,2,4]triazolo[1,5-a]pyridin-7-yl}-N-{[2-(cyclobutylmethoxy)phenyl]methyl}-2-ethoxypyridine-3-carboxamide], for which the IC50 in experiment [1] (setting [6]) is < 20 nM; in experiment [2] (setting [7]) it was 20 to 200 nM.

Consider `CCOc1ncc(-c2ccn3nc(N)nc3c2)cc1C(=O)NCc1ccccc1SCC(F)(F)F` [Example 265, 5-{2-amino-[1,2,4]triazolo[1,5-a]pyridin-7-yl}-2-ethoxy-N-({2-[(2,2,2-trifluoroethyl)sulfanyl]phenyl}methyl)pyridine-3-carboxamide], for which the IC50 was 20 to 200 nM in experiment [1] (setting [3]) and > 200 nM in experiment [2] (setting [4]).

As for `Cc1cnc(C(=O)NCCC(C)c2ccccc2)cc1-c1ccn2nc(N)nc2c1` (centres unmarked) [Example 400, 4-(2-amino-[1,2,4]triazolo[1,5-a]pyridin-7-yl)-5-methyl-N-(3-phenylbutyl)picolinamide], the IC50 is < 20 nM in experiment [1] (setting [6]) and 20 to 200 nM in experiment [2] (setting [7]).

As for `COc1nc(C)c(-c2ccn3nc(N)nc3c2)cc1C(=O)NCc1c(F)cccc1OCC1CC1` [Example 215, 5-{2-amino-[1,2,4]triazolo[1,5-a]pyridin-7-yl}-N-{[2-(cyclopropylmethoxy)-6-fluorophenyl]methyl}-2-methoxy-6-methylpyridine-3-carboxamide], the IC50 in experiment [1] (setting [6]) and in experiment [2] (setting [8]) was < 20 nM each time.

In the case of `Nc1nc2cc(-c3cnc(Cl)c(C(=O)NCc4cc(OC(F)(F)F)ccc4F)c3)ccn2n1` [Example 166, 5-{2-amino-[1,2,4]triazolo[1,5-a]pyridin-7-y1}-2-chloro-N-{[2-fluoro-5-(trifluoromethoxy)phenyl]methyl}pyridine-3-carboxamide], the IC50 in experiment [1] (setting [3]) is 20 to 200 nM; in experiment [2] (setting [4]), > 200 nM.

For the compound `COc1ncc(-c2ccn3nc(N)nc3c2)cc1C(=O)NCc1ccccc1COC(C)C` [Example 348, 5-(2-amino-[1,2,4]triazolo[1,5-a]pyridin-7-yl)-N-(2-(isopropoxymethyl)benzyl)-2-methoxynicotinamide], the IC50 is < 20 nM in experiment [1] (setting [6]) and 20 to 200 nM in experiment [2] (setting [7]).

These data come from patent US10913738B2 (BRISTOL-MYERS SQUIBB COMPANY, priority 2017, dated 2021).
